Test results reported in US12077503B2, “Substituted cyclic amides and their use as herbicides” (FMC CORPORATION, priority 2015, dated 2024).

Assays:
Assay type in all cases: in vivo
[1] = system: redroot pigweed (Amaranthus retroflexus); test: Test G Post-Emergence Protocol; settings: Amaranthus retroflexus, post-emergence, 312 h
Summary of the method: (§1)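 Sow in soil; grow 8 d (24/16 °C, 14 h light, 65% humidity); spray 15.625/62.5/250 g/ha in acetone:water 50:50 + 0.5% Tween 20; grow on, water twice daily; score damage 0–100 at 13 d.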

[2] = system: velvetleaf (Abutilon theophrasti); test: Test G Post-Emergence Protocol; settings: Abutilon theophrasti, post-emergence, 312 h
Summary of the method: as §1

[3] = system: barnyardgrass (Echinochloa crus-galli); test: Test G Post-Emergence Protocol; settings: Echinochloa crus-galli, post-emergence, 312 h
Summary of the method: as §1

[4] = system: giant foxtail (Setaria faberi); test: Test G Post-Emergence Protocol; settings: Setaria faberi, post-emergence, 312 h
Summary of the method: as §1

[5] = system: ivy-leaved morning glory (Ipomoea hederacea); test: Test G Post-Emergence Protocol; settings: Ipomoea, post-emergence, 312 h
Summary of the method: as §1

[6] = system: corn (Zea mays); test: Test G Post-Emergence Protocol; settings: Zea mays, post-emergence, 312 h
Summary of the method: as §1

[7] = system: redroot pigweed (Amaranthus retroflexus); test: Test G Pre-Emergence Protocol; settings: Amaranthus retroflexus, pre-emergence, 312 h, evaluated after 13 days
Summary of the method: (§2)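 Under a 24/16° C day/night regime with 14 h light and 65% humidity, sown pots were sprayed after one day with compound (15.625, 62.5 or 250 g/ha; 50:50 acetone/water, 0.5% Tween 20). Damage was assessed visually 13 days later, 0 to 100.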

[8] = system: velvetleaf (Abutilon theophrasti); test: Test G Pre-Emergence Protocol; settings: Abutilon theophrasti, pre-emergence, 312 h, evaluated after 13 days
Summary of the method: as §2

[9] = system: barnyardgrass (Echinochloa crus-galli); test: Test G Pre-Emergence Protocol; settings: Echinochloa crus-galli, pre-emergence, 312 h, evaluated after 13 days
Summary of the method: as §2

[10] = system: giant foxtail (Setaria faberi); test: Test G Pre-Emergence Protocol; settings: Setaria faberi, pre-emergence, 312 h, evaluated after 13 days
Summary of the method: as §2

[11] = system: ivy-leaved morning glory (Ipomoea hederacea); test: Test G Pre-Emergence Protocol; settings: Ipomoea, pre-emergence, 312 h, evaluated after 13 days
Summary of the method: as §2

[12] = system: corn (Zea mays); test: Test G Pre-Emergence Protocol; settings: Zea mays, pre-emergence, 312 h, evaluated after 13 days
Summary of the method: as §2

CN1C[C@@H](c2ccc(C(F)(F)F)cc2)[C@H](C(=O)Nc2ccsc2)C1=O (racemic) [Compound 1611]
0%: pest or weed control at 15.625 g/ha ([1]; 15.625 g ai/ha, evaluated after 13 days (100=total damage to plant; 0=no damage to plant), read-out: Pigweed, Redroot damage rating) | pest or weed control at 62.5 g/ha ([1]; 62.5 g ai/ha, evaluated after 13 days, read-out: Pigweed, Redroot damage rating (100=total damage to plant; 0=no damage to plant)) | pest or weed control at 250 g/ha ([1]; 250 g ai/ha, evaluated after 13 days, read-out: damage to plant, Pigweed, Redroot (100=total damage to plant; 0=no damage to plant)) | pest or weed control at 15.625 g/ha ([2]; 15.625 g ai/ha, evaluated after 13 days (100=total damage to plant; 0=no damage to plant), read-out: Velvetleaf damage rating) | pest or weed control at 62.5 g/ha ([2]; 62.5 g ai/ha, evaluated after 13 days, read-out: Velvetleaf damage rating (100=total damage to plant; 0=no damage to plant)) | pest or weed control at 250 g/ha ([2]; 250 g ai/ha, evaluated after 13 days, read-out: damage to plant, Velvetleaf (100=total damage to plant; 0=no damage to plant)) | pest or weed control at 15.625 g/ha ([3]; 15.625 g ai/ha, evaluated after 13 days (100=total damage to plant; 0=no damage to plant), read-out: Barnyardgrass damage rating) | pest or weed control at 62.5 g/ha ([3]; 62.5 g ai/ha, evaluated after 13 days, read-out: Barnyardgrass damage rating (100=total damage to plant; 0=no damage to plant)) | pest or weed control at 250 g/ha ([3]; 250 g ai/ha, evaluated after 13 days, read-out: damage to plant, Barnyardgrass (100=total damage to plant; 0=no damage to plant)) | pest or weed control at 15.625 g/ha ([4]; 15.625 g ai/ha, evaluated after 13 days (100=total damage to plant; 0=no damage to plant), read-out: Foxtail, Giant damage rating) | pest or weed control at 62.5 g/ha ([4]; 62.5 g ai/ha, evaluated after 13 days, read-out: Foxtail, Giant damage rating (100=total damage to plant; 0=no damage to plant)) | pest or weed control at 250 g/ha ([4]; 250 g ai/ha, evaluated after 13 days, read-out: damage to plant, Foxtail, Giant (100=total damage to plant; 0=no damage to plant)) | pest or weed control at 15.625 g/ha ([5]; 15.625 g ai/ha, evaluated after 13 days (100=total damage to plant; 0=no damage to plant), read-out: Morningglory, Ivy-leaved damage rating) | pest or weed control at 62.5 g/ha ([5]; 62.5 g ai/ha, evaluated after 13 days, read-out: Morningglory, Ivy-leaved damage rating (100=total damage to plant; 0=no damage to plant)) | pest or weed control at 250 g/ha ([5]; 250 g ai/ha, evaluated after 13 days, read-out: damage to plant, Morningglory, Ivy-leaved (100=total damage to plant; 0=no damage to plant)) | plant injury at 15.625 g/ha ([6]; 15.625 g ai/ha, evaluated after 13 days (100=total damage to plant; 0=no damage to plant), read-out: Corn damage rating) | plant injury at 62.5 g/ha ([6]; 62.5 g ai/ha, evaluated after 13 days, read-out: Corn damage rating (100=total damage to plant; 0=no damage to plant)) | plant injury at 250 g/ha ([6]; 250 g ai/ha, evaluated after 13 days, read-out: damage to plant, Corn (100=total damage to plant; 0=no damage to plant)) | pest or weed control at 15.625 g/ha ([7]; 15.625 g ai/ha, read-out: Pigweed, Redroot damage rating (100=total damage to plant; 0=no damage to plant)) | pest or weed control at 62.5 g/ha ([7]; 62.5 g ai/ha, 100=total damage to plant, 0=no damage to plant, read-out: plant damage rating, Pigweed, Redroot) | pest or weed control at 250 g/ha ([7]; 250 g ai/ha, read-out: Pigweed, Redroot damage rating (100=total damage to plant; 0=no damage to plant)) | pest or weed control at 15.625 g/ha ([8]; 15.625 g ai/ha, read-out: Velvetleaf damage rating (100=total damage to plant; 0=no damage to plant)) | pest or weed control at 62.5 g/ha ([8]; 62.5 g ai/ha, 100=total damage to plant, 0=no damage to plant, read-out: plant damage rating, Velvetleaf) | pest or weed control at 250 g/ha ([8]; 250 g ai/ha, read-out: Velvetleaf damage rating (100=total damage to plant; 0=no damage to plant)) | pest or weed control at 15.625 g/ha ([9]; 15.625 g ai/ha, read-out: Barnyard grass damage rating (100=total damage to plant; 0=no damage to plant)) | pest or weed control at 62.5 g/ha ([9]; 62.5 g ai/ha, 100=total damage to plant, 0=no damage to plant, read-out: plant damage rating, Barnyardgrass) | pest or weed control at 250 g/ha ([9]; 250 g ai/ha, read-out: Barnyardgrass damage rating (100=total damage to plant; 0=no damage to plant)) | pest or weed control at 15.625 g/ha ([10]; 15.625 g ai/ha, read-out: Foxtail, Giant damage rating (100=total damage to plant; 0=no damage to plant)) | pest or weed control at 62.5 g/ha ([10]; 62.5 g ai/ha, 100=total damage to plant, 0=no damage to plant, read-out: plant damage rating, Foxtail, Giant) | pest or weed control at 250 g/ha ([10]; 250 g ai/ha, read-out: Foxtail, Giant damage rating (100=total damage to plant; 0=no damage to plant)) | pest or weed control at 15.625 g/ha ([11]; 15.625 g ai/ha, read-out: Morning-glory, Ivy-leaved damage rating (100=total damage to plant; 0=no damage to plant)) | pest or weed control at 62.5 g/ha ([11]; 62.5 g ai/ha, 100=total damage to plant, 0=no damage to plant, read-out: plant damage rating, Morningglory, Ivy-leaved) | pest or weed control at 250 g/ha ([11]; 250 g ai/ha, read-out: Morningglory, Ivy-leaved damage rating (100=total damage to plant; 0=no damage to plant)) | plant injury at 15.625 g/ha ([12]; 15.625 g ai/ha, read-out: Corn damage rating (100=total damage to plant; 0=no damage to plant)) | plant injury at 62.5 g/ha ([12]; 62.5 g ai/ha, 100=total damage to plant, 0=no damage to plant, read-out: plant damage rating, Corn) | plant injury at 250 g/ha ([12]; 250 g ai/ha, read-out: Corn damage rating (100=total damage to plant; 0=no damage to plant))
